Data: patent US20240209019A1, “COMPOUNDS AND METHODS FOR TREATING HYPERKALEMIA” (ARDELYX, INC., priority 2019, published 2024)

target: HSD2 (Homo sapiens (Human), UniProt P80365); assay: HSD2 activity: cortisol conversion in human descending colon organoid monolayer cultures (Example 112); conditions: human descending colon epithelial cultures on transwells; 30 minute pre-incubation, then 40 nM cortisol for four hours; cortisol HTRF assay
Sequence (P80365 whole entry): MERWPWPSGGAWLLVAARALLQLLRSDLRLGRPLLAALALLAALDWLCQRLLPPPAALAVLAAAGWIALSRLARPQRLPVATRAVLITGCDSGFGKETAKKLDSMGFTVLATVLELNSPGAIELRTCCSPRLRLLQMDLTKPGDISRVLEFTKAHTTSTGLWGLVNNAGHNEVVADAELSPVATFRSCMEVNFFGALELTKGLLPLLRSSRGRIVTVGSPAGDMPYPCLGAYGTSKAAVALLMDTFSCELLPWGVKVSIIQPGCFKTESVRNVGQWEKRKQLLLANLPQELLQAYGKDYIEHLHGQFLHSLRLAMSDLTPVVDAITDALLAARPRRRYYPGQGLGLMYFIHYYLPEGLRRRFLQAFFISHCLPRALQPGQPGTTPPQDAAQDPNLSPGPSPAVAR
Procedure: Human descending colon epithelial stem cells were cultured as 3D organoids in accordance with Sato et al. Gastroenterology. […] Cultures were differentiated using SBM containing ENRA and 30 nM aldosterone on day 3, and cultures were used for assay on day 6 or 7. Compounds were diluted in DMSO and serial dilutions prepared by titrating in DMSO. Compounds were then diluted into DMEM/F12. Transwell plates containing descending colon cultures were washed twice with DMEM/F12 and compound was added to the apical compartment. Cells were incubated with test compound for 30 minutes at 37° C., 5% CO2 to equilibrate across the cell membrane. A second compound plate was prepared in which the serially diluted compounds in DMSO were diluted into DMEM/F12 containing 40 nM cortisol. Following the 30 minute pre-incubation step, the apical media was aspirated and compounds diluted in DMEM/F12 with 40 nM cortisol were added to the apical side of the transwell. The plate was then incubated for four hours at 37° C., 5% CO2. Cortisol levels were measured using a cortisol HTRF assay kit as described by the manufacturer (Cisbio). Concentration-response curves were then plotted and IC50 (and pIC50) values were determined using least squares non-linear regression.
Inhibition of HSD2 activity as measured by the inhibition of the conversion of cortisone to cortisol.

Row | Structure (SMILES) | pIC50
1 | CCc1oc(=O)oc1COC(=O)[C@]1(C)[C@@H](OC(C)=O)CC[C@@]2(C)[C@H]1CC[C@]1(C)[C@@H]2C(=O)C=C2[C@@H]3C[C@@](C)(C(=O)O)CC[C@]3(C)CC[C@]21C [Compound 316-1, (2S,4aS,6aS,6bR,8aR,9S,10S,12aS,12bR,14bR)-10-acetoxy-9-(((5-ethyl-2-oxo-1,3-dioxol-4-yl)methoxy)carbonyl)-2,4a,6a,6b,9,12a-hexamethyl-13-oxo-1,2,3,4,4a,5,6,6a,6b,7,8,8a,9,10,11,12,12a,12b,13,14b-icosahydropicene-2-carboxylic acid] | 7.5
2 | CC1(C)[C@@H](C(=O)OCC2COC(=O)O2)CC[C@]2(C)[C@H]3C(=O)C=C4[C@@H]5C[C@@](C)(C(=O)O)CC[C@]5(C)CC[C@@]4(C)[C@]3(C)CC[C@@H]12 (stereo partly drawn) [Compound 700-1, (2S,4aS,6aS,6bR,8aS,10S,12aS,12bR,14bR)-2,4a,6a,6b,9,9,12a-heptamethyl-13-oxo-10-{[(2-oxo-1,3-dioxolan-4-yl)methoxy]carbonyl}-1,2,3,4,4a,5,6,6a,6b,7,8,8a,9,10,11,12,12a,12b,13,14b-icosahydropicene-2-carboxylic acid] | 6.1
3 | CSCC(=O)O[C@H]1CC[C@@]2(C)[C@@H](CC[C@]3(C)[C@@H]2C(=O)C=C2[C@@H]4C[C@@](C)(C(=O)O)CC[C@]4(C)CC[C@]23C)[C@]1(C)C(=O)OCc1oc(=O)oc1C(C)C [Compound 701-1, (2S,4aS,6aS,6bR,8aR,9S,10S,12aS,12bR,14bR)-2,4a,6a,6b,9,12a-hexamethyl-10-{[2-(methylsulfanyl)acetyl]oxy}-13-oxo-9-({[2-oxo-5-(propan-2-yl)-2H-1,3-dioxol-4-yl]methoxy}carbonyl)-1,2,3,4,4a,5,6,6a,6b,7,8,8a,9,10,11,12,12a,12b,13,14b-icosahydropicene-2-carboxylic acid] | 7
4 | CC(=O)O[C@]1(C)CC[C@@]2(C)[C@@H](CC[C@]3(C)[C@@H]2C(=O)C=C2[C@@H]4C[C@@](C)(C(=O)O)CC[C@]4(C)CC[C@]23C)[C@]1(C)C(=O)OCc1oc(=O)oc1C(C)C [Compound 702-1, (2S,4aS,6aS,6bR,8aR,9S,10R,12aS,12bR,14bR)-10-(acetyloxy)-2,4a,6a,6b,9,10,12a-heptamethyl-13-oxo-9-({[2-oxo-5-(propan-2-yl)-2H-1,3-dioxol-4-yl]methoxy}carbonyl)-1,2,3,4,4a,5,6,6a,6b,7,8,8a,9,10,11,12,12a,12b,13,14b-icosahydropicene-2-carboxylic acid] | 6.4
5 | CCc1oc(=O)oc1COC(=O)[C@@]1(C)[C@@H]2CC[C@]3(C)[C@H](C(=O)C=C4[C@@H]5C[C@@](C)(C(=O)O)CC[C@]5(C)CC[C@]43C)[C@@]2(C)CC[C@@]1(C)OC(C)=O [Compound 703-1, (2S,4aS,6aS,6bR,8aR,9S,10R,12aS,12bR,14bR)-10-(acetyloxy)-9-{[(5-ethyl-2-oxo-2H-1,3-dioxol-4-yl)methoxy]carbonyl}-2,4a,6a,6b,9,10,12a-heptamethyl-13-oxo-1,2,3,4,4a,5,6,6a,6b,7,8,8a,9,10,11,12,12a,12b,13,14b-icosahydropicene-2-carboxylic acid] | 6.1
6 | CC(=O)O[C@]1(C)CC[C@@]2(C)[C@@H](CC[C@]3(C)[C@@H]2C(=O)C=C2[C@@H]4C[C@@](C)(C(=O)O)CC[C@]4(C)CC[C@]23C)[C@]1(C)C(=O)OCc1oc(=O)oc1C [Compound 704-1, (2S,4aS,6aS,6bR,8aR,9S,10R,12aS,12bR,14bR)-10-(acetyloxy)-2,4a,6a,6b,9,10,12a-heptamethyl-9-{[(5-methyl-2-oxo-2H-1,3-dioxol-4-yl)methoxy]carbonyl}-13-oxo-1,2,3,4,4a,5,6,6a,6b,7,8,8a,9,10,11,12,12a,12b,13,14b-icosahydropicene-2-carboxylic acid] | 6.3
7 | CC(=O)O[C@H]1CC[C@@]2(C)[C@@H](CC[C@]3(C)[C@@H]2C(=O)C=C2[C@@H]4C[C@@](C)(C(=O)O)CC[C@]4(C)CC[C@]23C)[C@]1(C)C(=O)OCc1oc(=O)oc1C(C)(C)C [Compound 705-1, (2S,4aS,6aS,6bR,8aR,9S,10S,12aS,12bR,14bR)-10-(acetyloxy)-9-{[(5-tert-butyl-2-oxo-2H-1,3-dioxol-4-yl)methoxy]carbonyl}-2,4a,6a,6b,9,12a-hexamethyl-13-oxo-1,2,3,4,4a,5,6,6a,6b,7,8,8a,9,10,11,12,12a,12b,13,14b-icosahydropicene-2-carboxylic acid] | 6.6
8 | CCCc1oc(=O)oc1COC(=O)[C@]1(C)[C@@H](OC(C)=O)CC[C@@]2(C)[C@H]1CC[C@]1(C)[C@@H]2C(=O)C=C2[C@@H]3C[C@@](C)(C(=O)O)CC[C@]3(C)CC[C@]21C [Compound 706-1, (2S,4aS,6aS,6bR,8aR,9S,10S,12aS,12bR,14bR)-10-(acetyloxy)-2,4a,6a,6b,9,12a-hexamethyl-13-oxo-9-{[(2-oxo-5-propyl-2H-1,3-dioxol-4-yl)methoxy]carbonyl}-1,2,3,4,4a,5,6,6a,6b,7,8,8a,9,10,11,12,12a,12b,13,14b-icosahydropicene-2-carboxylic acid] | 6.7
9 | CC(=O)O[C@H]1CC[C@@]2(C)[C@@H](CC[C@]3(C)[C@@H]2C(=O)C=C2[C@@H]4C[C@@](C)(C(=O)O)CC[C@]4(C)CC[C@]23C)[C@]1(C)C(=O)OCc1oc(=O)oc1-c1ccccc1 [Compound 707-1, (2S,4aS,6aS,6bR,8aR,9S,10S,12aS,12bR,14bR)-10-(acetyloxy)-2,4a,6a,6b,9,12a-hexamethyl-13-oxo-9-{[(2-oxo-5-phenyl-2H-1,3-dioxol-4-yl)methoxy]carbonyl}-1,2,3,4,4a,5,6,6a,6b,7,8,8a,9,10,11,12,12a,12b,13,14b-icosahydropicene-2-carboxylic acid] | 7.1
10 | COCC(=O)O[C@H]1CC[C@@]2(C)[C@@H](CC[C@]3(C)[C@@H]2C(=O)C=C2[C@@H]4C[C@@](C)(C(=O)O)CC[C@]4(C)CC[C@]23C)[C@]1(C)C(=O)OCc1oc(=O)oc1C(C)C [Compound 708-1, (2S,4aS,6aS,6bR,8aR,9S,10S,12aS,12bR,14bR)-10-[(2-methoxyacetyl)oxy]-2,4a,6a,6b,9,12a-hexamethyl-13-oxo-9-({[2-oxo-5-(propan-2-yl)-2H-1,3-dioxol-4-yl]methoxy}carbonyl)-1,2,3,4,4a,5,6,6a,6b,7,8,8a,9,10,11,12,12a,12b,13,14b-icosahydropicene-2-carboxylic acid] | 6.3
11 | COCC(=O)O[C@H]1CC[C@@]2(C)[C@@H](CC[C@]3(C)[C@@H]2C(=O)C=C2[C@@H]4C[C@@](C)(C(=O)O)CC[C@]4(C)CC[C@]23C)[C@]1(C)C(=O)OCc1oc(=O)oc1C [Compound 709-1, (2S,4aS,6aS,6bR,8aR,9S,10S,12aS,12bR,14bR)-10-[(2-methoxyacetyl)oxy]-2,4a,6a,6b,9,12a-hexamethyl-9-{[(5-methyl-2-oxo-2H-1,3-dioxol-4-yl)methoxy]carbonyl}-13-oxo-1,2,3,4,4a,5,6,6a,6b,7,8,8a,9,10,11,12,12a,12b,13,14b-icosahydropicene-2-carboxylic acid] | 7.2
12 | COCCOCCOCCSCc1oc(=O)oc1COC(=O)CO[C@H]1CC[C@]2(C)[C@H]3C(=O)C=C4[C@@H]5C[C@@](C)(C(=O)O)CC[C@]5(C)CC[C@@]4(C)[C@]3(C)CC[C@H]2C1(C)C [Compound 710-1, (2S,4aS,6aS,6bR,8aR,10S,12aS,12bR,14bR)-2,4a,6a,6b,9,9,12a-heptamethyl-13-oxo-10-(2-oxo-2-{[2-oxo-5-(2,5,8-trioxa-11-thiadodecan-12-yl)-2H-1,3-dioxol-4-yl]methoxy}ethoxy)-1,2,3,4,4a,5,6,6a,6b,7,8,8a,9,10,11,12,12a,12b,13,14b-icosahydropicene-2-carboxylic acid] | 6
13 | CC1(C)[C@@H](OCC(=O)OCc2oc(=O)oc2CO)CC[C@]2(C)[C@H]3C(=O)C=C4[C@@H]5C[C@@](C)(C(=O)O)CC[C@]5(C)CC[C@@]4(C)[C@]3(C)CC[C@@H]12 [Compound 711-1, (2S,4aS,6aS,6bR,8aR,10S,12aS,12bR,14bR)-10-(2-{[5-(hydroxymethyl)-2-oxo-2H-1,3-dioxol-4-yl]methoxy}-2-oxoethoxy)-2,4a,6a,6b,9,9,12a-heptamethyl-13-oxo-1,2,3,4,4a,5,6,6a,6b,7,8,8a,9,10,11,12,12a,12b,13,14b-icosahydropicene-2-carboxylic acid] | 5.8
14 | Cc1oc(=O)oc1COC(=O)CO[C@H]1CC[C@]2(C)[C@H]3C(=O)C=C4[C@@H]5C[C@@](C)(C(=O)O)CC[C@]5(C)CC[C@@]4(C)[C@]3(C)CC[C@H]2C1(C)C [Compound 712-1, (2S,4aS,6aS,6bR,8aR,10S,12aS,12bR,14bR)-2,4a,6a,6b,9,9,12a-heptamethyl-10-{2-[(5-methyl-2-oxo-2H-1,3-dioxol-4-yl)methoxy]-2-oxoethoxy}-13-oxo-1,2,3,4,4a,5,6,6a,6b,7,8,8a,9,10,11,12,12a,12b,13,14b-icosahydropicene-2-carboxylic acid] | 5
15 | CCOC(=O)c1cnn([C@H]2CC[C@@]3(C)[C@@H](CC[C@]4(C)[C@@H]3C(=O)C=C3[C@@H]5C[C@@](C)(C(=O)O)CC[C@]5(C)CC[C@]34C)[C@]2(C)C(=O)OCc2oc(=O)oc2C)c1OC [Compound 713-1, (2S,4aS,6aS,6bR,8aR,9S,10S,12aS,12bR,14bR)-10-[4-(ethoxycarbonyl)-5-methoxy-1H-pyrazol-1-yl]-2,4a,6a,6b,9,12a-hexamethyl-9-{[(5-methyl-2-oxo-2H-1,3-dioxol-4-yl)methoxy]carbonyl}-13-oxo-1,2,3,4,4a,5,6,6a,6b,7,8,8a,9,10,11,12,12a,12b,13,14b-icosahydropicene-2-carboxylic acid] | 6.9
